Patent US7632811B2, “Analogs of parathyroid hormone” (Societe de Conseils de Recherches et D'Applications …, priority 1995, dated 2009)
Non-standard residues stand in square brackets, D forms with d. Residues, ends and D or L forms follow the SMILES beside them. Cha = N[C@@H](CC1CCCCC1)C(=O)O; Nle = CCCC[C@H](N)C(=O)O; Aib = CC(C)(N)C(=O)O

What follows are compounds tested against T1, PTH receptor present on SaOS-2 (human osteosarcoma cells) (Homo sapiens, UniProt Q03431) (assay: Binding to PTH receptor on SaOS-2 cells (competition with mono-125I-[Nle8,18,Tyr34(3-125I)]bPTH(1-34)NH2)). Conditions: Table I, 2 hrs at room temperature, read-out: Kd (half maximal inhibition of binding of mono-125I-[Nle8,18, Tyr34(3-125I)]bPTH(1-34)NH2).
T1 construct: host or cells: SaOS-2 human osteosarcoma cells (intact, confluent monolayers)
T1 sequence (Q03431 27-593): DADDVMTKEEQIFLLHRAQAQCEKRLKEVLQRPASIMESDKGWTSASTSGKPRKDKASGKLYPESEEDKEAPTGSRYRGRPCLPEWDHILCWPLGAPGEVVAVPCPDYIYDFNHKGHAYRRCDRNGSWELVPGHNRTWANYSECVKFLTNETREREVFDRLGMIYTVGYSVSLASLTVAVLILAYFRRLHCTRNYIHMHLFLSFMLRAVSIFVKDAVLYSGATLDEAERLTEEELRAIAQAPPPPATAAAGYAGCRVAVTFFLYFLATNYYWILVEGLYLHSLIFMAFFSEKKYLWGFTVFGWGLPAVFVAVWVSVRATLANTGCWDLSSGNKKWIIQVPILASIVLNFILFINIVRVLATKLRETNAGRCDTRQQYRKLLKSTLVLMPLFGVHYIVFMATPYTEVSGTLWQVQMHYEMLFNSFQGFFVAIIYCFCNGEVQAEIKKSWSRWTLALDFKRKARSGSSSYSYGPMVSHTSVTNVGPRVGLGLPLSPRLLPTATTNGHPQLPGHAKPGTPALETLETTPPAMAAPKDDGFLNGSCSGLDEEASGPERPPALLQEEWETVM
Method in brief: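 Confluent SaOS-2 cells in 5% FBS RPMI were incubated 2 h at room temperature with 10×10^4 cpm mono-125I-[Nle8,18,Tyr34(3-125I)]bPTH(1-34)NH2 plus competing peptide at 10^−11 to 10^−4 M. After washing, cell-bound radioactivity was counted; Kd taken as half-maximal inhibition of tracer binding.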

Row | SMILES | Kd
1 | CC[C@H](C)[C@H](NC(=O)[C@H](CCC(=O)O)NC(=O)C(C)(C)NC(=O)[C@@H](NC(=O)[C@@H](N)CO)C(C)C)C(=O)N[C@@H](CCC(N)=O)C(=O)N[C@@H](CC(C)C)C(=O)N[C@@H](CCSC)C(=O)N[C@@H](Cc1c[nH]cn1)C(=O)N[C@@H](CC(N)=O)C(=O)N[C@@H](CC(C)C)C(=O)NCC(=O)N[C@@H](CCCCN)C(=O)N[C@@H](Cc1c[nH]cn1)C(=O)N[C@@H](CC(C)C)C(=O)N[C@@H](CC(N)=O)C(=O)N[C@@H](CO)C(=O)N[C@@H](CCSC)C(=O)N[C@@H](CCC(=O)O)C(=O)N[C@@H](CCCNC(=N)N)C(=O)N[C@H](C(=O)N[C@@H](CCC(=O)O)C(=O)N[C@@H](Cc1c[nH]c2ccccc12)C(=O)N[C@@H](CC(C)C)C(=O)N[C@@H](CCCNC(=N)N)C(=O)N[C@@H](CCCCN)C(=O)N[C@@H](CCCCN)C(=O)N[C@@H](CC(C)C)C(=O)N[C@@H](CCC(N)=O)C(=O)N[C@@H](CC(=O)O)C(=O)N[C@H](C(=O)N[C@@H](Cc1c[nH]cn1)C(=O)N[C@@H](CC(N)=O)C(=O)N[C@@H](Cc1ccccc1)C(N)=O)C(C)C)C(C)C [[Aib^3]hPTH(1-34)NH2] (H-SV[Aib]EIQLMHNLGKHLNSMERVEWLRKKLQDVHNF-NH2) | 0.004 µM
2 | CC[C@H](C)[C@H](NC(=O)[C@H](CCC(=O)O)NC(=O)[C@H](CO)NC(=O)[C@@H](NC(=O)[C@@H](N)CO)C(C)C)C(=O)N[C@@H](CCC(N)=O)C(=O)N[C@@H](CC(C)C)C(=O)N[C@@H](CCSC)C(=O)N[C@@H](Cc1c[nH]cn1)C(=O)N[C@@H](CC(N)=O)C(=O)N[C@@H](CC(C)C)C(=O)NCC(=O)N[C@@H](CCCCN)C(=O)N[C@@H](Cc1c[nH]cn1)C(=O)N[C@@H](CC(C)C)C(=O)N[C@@H](CC(N)=O)C(=O)N[C@@H](CO)C(=O)N[C@@H](CCSC)C(=O)NC(C)(C)C(=O)N[C@@H](CCCNC(=N)N)C(=O)N[C@H](C(=O)N[C@@H](CCC(=O)O)C(=O)N[C@@H](Cc1c[nH]c2ccccc12)C(=O)N[C@@H](CC(C)C)C(=O)N[C@@H](CCCNC(=N)N)C(=O)N[C@@H](CCCCN)C(=O)N[C@@H](CCCCN)C(=O)N[C@@H](CC(C)C)C(=O)N[C@@H](CCC(N)=O)C(=O)N[C@@H](CC(=O)O)C(=O)N[C@H](C(=O)N[C@@H](Cc1c[nH]cn1)C(=O)N[C@@H](CC(N)=O)C(=O)N[C@@H](Cc1ccccc1)C(N)=O)C(C)C)C(C)C [[Aib^19]hPTH(1-34)NH2] (H-SVSEIQLMHNLGKHLNSM[Aib]RVEWLRKKLQDVHNF-NH2) | 0.005 µM
3 | CCCC[C@H](NC(=O)[C@H](CC(=O)O)NC(=O)[C@H](CCC(N)=O)NC(=O)[C@H](CC(C)C)NC(=O)[C@H](CCCCN)NC(=O)[C@H](CCCCN)NC(=O)[C@H](CCCNC(=N)N)NC(=O)[C@H](CC(C)C)NC(=O)[C@H](Cc1c[nH]c2ccccc12)NC(=O)[C@H](CCC(=O)O)NC(=O)[C@@H](NC(=O)[C@H](CCCNC(=N)N)NC(=O)C(C)(C)NC(=O)[C@H](CCCC)NC(=O)[C@H](CO)NC(=O)C(C)(C)NC(=O)[C@H](CC(C)C)NC(=O)[C@H](Cc1c[nH]cn1)NC(=O)[C@H](CCCCN)NC(=O)CNC(=O)[C@H](CC1CCCCC1)NC(=O)[C@H](CC(N)=O)NC(=O)[C@H](Cc1c[nH]cn1)NC(=O)[C@H](CCCC)NC(=O)[C@H](CC1CCCCC1)NC(=O)[C@H](CCC(N)=O)NC(=O)[C@@H](NC(=O)[C@H](CCC(=O)O)NC(=O)[C@H](CO)NC(=O)[C@@H](NC(=O)[C@@H](N)CO)C(C)C)[C@@H](C)CC)C(C)C)C(=O)N[C@@H](Cc1c[nH]cn1)C(=O)N[C@@H](CC(N)=O)C(=O)N[C@@H](Cc1ccc(O)cc1)C(N)=O [[Cha^7,11, Nle^8,18,31, Aib^16,19, Tyr^34]hPTH(1-34)NH2] (H-SVSEIQ[Cha][Nle]HN[Cha]GKHL[Aib]S[Nle][Aib]RVEWLRKKLQD[Nle]HNY-NH2) | 0.04 µM

Continued, values first:

Row | Kd | SMILES
4 | 0.02 µM | CC[C@H](C)[C@H](NC(=O)[C@H](CCC(=O)O)NC(=O)[C@H](CO)NC(=O)[C@@H](NC(=O)[C@@H](N)CO)C(C)C)C(=O)N[C@@H](CCC(N)=O)C(=O)N[C@@H](CC1CCCCC1)C(=O)N[C@@H](CCSC)C(=O)N[C@@H](Cc1c[nH]cn1)C(=O)N[C@@H](CC(N)=O)C(=O)N[C@@H](CC(C)C)C(=O)NCC(=O)N[C@@H](CCCCN)C(=O)N[C@@H](Cc1c[nH]cn1)C(=O)N[C@@H](CC(C)C)C(=O)N[C@@H](CC(N)=O)C(=O)N[C@@H](CO)C(=O)N[C@@H](CCSC)C(=O)N[C@@H](CCC(=O)O)C(=O)N[C@@H](CCCNC(=N)N)C(=O)N[C@H](C(=O)N[C@@H](CCC(=O)O)C(=O)N[C@@H](Cc1c[nH]c2ccccc12)C(=O)N[C@@H](CC(C)C)C(=O)N[C@@H](CCCNC(=N)N)C(=O)N[C@@H](CCCCN)C(=O)N[C@@H](CCCCN)C(=O)N[C@@H](CC(C)C)C(=O)N[C@@H](CCC(N)=O)C(=O)N[C@@H](CC(=O)O)C(=O)N[C@H](C(=O)N[C@@H](Cc1c[nH]cn1)C(=O)N[C@@H](CC(N)=O)C(=O)N[C@@H](Cc1ccccc1)C(N)=O)C(C)C)C(C)C [[Cha^7]hPTH(1-34)NH2] (H-SVSEIQ[Cha]MHNLGKHLNSMERVEWLRKKLQDVHNF-NH2)
5 | 0.03 µM | CCCC[C@H](NC(=O)[C@H](CO)NC(=O)[C@H](CC(N)=O)NC(=O)[C@H](CC(C)C)NC(=O)[C@H](Cc1c[nH]cn1)NC(=O)[C@H](CCCCN)NC(=O)CNC(=O)[C@H](CC1CCCCC1)NC(=O)[C@H](CC(N)=O)NC(=O)[C@H](Cc1c[nH]cn1)NC(=O)[C@H](CCCC)NC(=O)[C@H](CC1CCCCC1)NC(=O)[C@H](CCC(N)=O)NC(=O)[C@@H](NC(=O)[C@H](CCC(=O)O)NC(=O)[C@H](CO)NC(=O)[C@@H](NC(=O)[C@@H](N)CO)C(C)C)[C@@H](C)CC)C(=O)N[C@@H](CCC(=O)O)C(=O)N[C@@H](CCCNC(=N)N)C(=O)N[C@H](C(=O)N[C@@H](CCC(=O)O)C(=O)N[C@@H](Cc1c[nH]c2ccccc12)C(=O)N[C@@H](CC(C)C)C(=O)N[C@@H](CCCNC(=N)N)C(=O)N[C@@H](CCCCN)C(=O)N[C@@H](CCCCN)C(=O)N[C@@H](CC(C)C)C(=O)N[C@@H](CCC(N)=O)C(=O)N[C@@H](CC(=O)O)C(=O)N[C@H](C(=O)N[C@@H](Cc1c[nH]cn1)C(=O)N[C@@H](CC(N)=O)C(=O)NC(C)(C)C(N)=O)C(C)C)C(C)C [[Cha^7,11, Nle^8,18, Aib^34]hPTH(1-34)NH2] (H-SVSEIQ[Cha][Nle]HN[Cha]GKHLNS[Nle]ERVEWLRKKLQDVHN[Aib]-NH2)
6 | 0.05 µM | CC[C@H](C)[C@H](NC(=O)[C@H](CCC(=O)O)NC(=O)[C@H](CO)NC(=O)[C@@H](NC(=O)[C@@H](N)CO)C(C)C)C(=O)N[C@@H](CCC(N)=O)C(=O)N[C@@H](CC(C)C)C(=O)N[C@@H](CCSC)C(=O)N[C@@H](Cc1c[nH]cn1)C(=O)N[C@@H](CC(N)=O)C(=O)N[C@@H](CC(C)C)C(=O)NCC(=O)N[C@@H](CCCCN)C(=O)N[C@@H](Cc1c[nH]cn1)C(=O)N[C@@H](CC(C)C)C(=O)N[C@@H](CC(N)=O)C(=O)N[C@@H](CO)C(=O)N[C@@H](CCSC)C(=O)N[C@@H](CCC(=O)O)C(=O)N[C@@H](CCCNC(=N)N)C(=O)N[C@H](C(=O)N[C@@H](CCC(=O)O)C(=O)N[C@@H](Cc1c[nH]c2ccccc12)C(=O)N[C@@H](CC(C)C)C(=O)N[C@@H](CCCNC(=N)N)C(=O)N[C@@H](CCCCN)C(=O)N[C@@H](CCCCN)C(=O)N[C@@H](CC1CCCCC1)C(=O)N[C@@H](CCC(N)=O)C(=O)N[C@@H](CC(=O)O)C(=O)N[C@H](C(=O)N[C@@H](Cc1c[nH]cn1)C(=O)N[C@@H](CC(N)=O)C(=O)N[C@@H](Cc1ccccc1)C(N)=O)C(C)C)C(C)C [[Cha^28]hPTH(1-34)NH2] (H-SVSEIQLMHNLGKHLNSMERVEWLRKK[Cha]QDVHNF-NH2)
7 | 0.1 µM | CC[C@H](C)[C@H](NC(=O)[C@H](CCC(=O)O)NC(=O)[C@H](CO)NC(=O)[C@@H](NC(=O)[C@@H](N)CO)C(C)C)C(=O)N[C@@H](CCC(N)=O)C(=O)N[C@@H](CC(C)C)C(=O)N[C@@H](CCSC)C(=O)N[C@@H](Cc1c[nH]cn1)C(=O)N[C@@H](CC(N)=O)C(=O)N[C@@H](CC(C)C)C(=O)NCC(=O)N[C@@H](CCCCN)C(=O)N[C@@H](Cc1c[nH]cn1)C(=O)N[C@@H](CC(C)C)C(=O)N[C@@H](CC(N)=O)C(=O)N[C@@H](CO)C(=O)N[C@@H](CCSC)C(=O)N[C@@H](CCC(=O)O)C(=O)N[C@@H](CCCNC(=N)N)C(=O)N[C@H](C(=O)N[C@@H](CCC(=O)O)C(=O)N[C@@H](Cc1c[nH]c2ccccc12)C(=O)N[C@@H](CC1CCCCC1)C(=O)N[C@@H](CCCNC(=N)N)C(=O)N[C@@H](CCCCN)C(=O)N[C@@H](CCCCN)C(=O)N[C@@H](CC(C)C)C(=O)N[C@@H](CCC(N)=O)C(=O)N[C@@H](CC(=O)O)C(=O)N[C@H](C(=O)N[C@@H](Cc1c[nH]cn1)C(=O)N[C@@H](CC(N)=O)C(=O)N[C@@H](Cc1ccccc1)C(N)=O)C(C)C)C(C)C [[Cha^24]hPTH(1-34)NH2] (H-SVSEIQLMHNLGKHLNSMERVEW[Cha]RKKLQDVHNF-NH2)
